Counter-ions that a name gives are not always drawn.
Molecular target: T1, human vasopressin V1a receptor subtype (Homo sapiens, UniProt P37288)
T1 construct: host or cells: CHO cells, stably transfected (pZeoSV vector for the Thibonnier cells)
Assay: Vasopressin binding in CHO cell membranes expressing human vasopressin V1a subtype receptors
Conditions: 100 nM, [3H]Manning ligand
From the text: Vasopressin Binding in Chinese Hamster Ovary Cell Membranes Expressing Human Vasopressin V1a Subtype Receptors
Chinese hamster ovary cells (CHO cells) stably transfected with the human vasopressin V1a subtype receptors were either obtained from Biosignal Inc., 1744 rue Williams, Montreal, Quebec, Canada or obtained from M. Thibonnier, Case Western Reserve University School of Medicine, Cleveland, Ohio.
A. Passaging and Amplification of Cells:
CHO cells transfected with the human vasopressin V1a subtype receptors obtained from M. Thibonnier (pZeoSV vector) are allowed to grow to confluency (approx. >90%) in T-150 flasks under sterile conditions, in a cell culture medium consisting of F-12 Nutrient Mixture (HAM) with L-glutamine (Gibco Cat.# 11765-054) containing 15 mM HEPES (Gibco Cat.# 15630-080), 1% antibiotic/antimycotic (add 5 mL 100×, Gibco Cat.# 15240-062 per 500 mL F-12), 250 μg/mL Zeocin (add 1.25 mL of 100 mg/mL Invitrogen R-250-01 per 500 mL F-12) and 10% Fetal Bovine Serum (Qualified, heat inactivated, Gibco Cat.# 16140-063). The medium is removed by aspiration and the cells are washed with 10 mL of Hank's Balanced Salt solution (Gibco Cat.# 14175-095). The salt solution is removed by aspiration and the cells are trypsinized with 5 mL of trypsin-EDTA (0.05% trypsin, 0.53 mM EDTA-4Na, Gibco Cat.# 25300-070) for 1 min. The trypsin is removed by aspiration and the cells dislodged by tapping. Cell Culture medium (eg, 30 mL for 1:30 split) is immediately added and mixed well to inactivate trypsin. 1 mL of detached cells is added to new culture flasks containing fresh cell culture medium (eg, into 25 mL per T-150 flask), and mixed gently. The cells are incubated at 37° C. in 5% CO2. The medium is changed at 3 to 4 days interval (or as appropriate). The cells grow to confluency (approx. >75%-95%) within 7-8 days. All steps are done under sterile conditions.
The cells are washed twice gently with Hank's Balanced Salt solution (e.g,. use 10 mL per T-150 flask). The excess is removed and the cells are bathed for 15-30 min. in an enzyme-free Cell Dissociation Buffer (e.g. use 8 mL Hank's Based, Gibco Cat.# 13150-016 per T-150 flask) until the cells are loosened. The contents are transferred to centrifuge tubes (50 mL) kept an ice bath. All subsequent steps are done at 4° C. The tubes are centrifuged at 300×g for 15 min (1380 rpm on SORVAL, Model RT6000D, using the rotor for 50 mL tubes). The supernatant is discarded and the cells suspended in homogeneizing buffer (10 mM Tris-HCl containing 0.25 M sucrose and 1 mM EDTA, pH 7.4) ensuring that the volume of the buffer is about ten times the volume of the cell pellet. The cells are pooled into a centrifuge tube (50 mL) and homogenized with Polytron at setting 6 for 10 sec. The homogenate is transferred into a Potter-Elvjehm homogenizer and homogenized with 3 strokes. The homogenate is centrifuged at 1500×g for 10 min at 4° C. (3100 rpm using SORVAL, model RT6000D, using the rotor for 50 mL tubes). The pellet is discarded. The supernatant is centrifuged at 100,000×g for 60 min. at 4° C. (Beckman L8-80M ultracentrifuge; spin at 37,500 rpm with rotor type 70 Ti for 50 mL tubes; 38,000 rpm with type […] for 15 mL tubes; or 35,800 rpm with rotor type 45Ti). The supernatant is discarded and the pellet suspended in 3 to 4 mL of Tris buffer (50 mM TRIS-HCl, pH 7.4). The protein content is estimated by the Bradford or Lowry method. The volume of the membrane suspension is adjusted with the membrane buffer (50 mM Tris-HCl containing 0.1% BSA and 0.1 mM PMSF) to give 3.0 mg/mL (or as appropriate) of protein. The membranes are aliquoted and stored at −70° C.
C. Radioligand Binding Assay: […]

T1 sequence (P37288 whole entry): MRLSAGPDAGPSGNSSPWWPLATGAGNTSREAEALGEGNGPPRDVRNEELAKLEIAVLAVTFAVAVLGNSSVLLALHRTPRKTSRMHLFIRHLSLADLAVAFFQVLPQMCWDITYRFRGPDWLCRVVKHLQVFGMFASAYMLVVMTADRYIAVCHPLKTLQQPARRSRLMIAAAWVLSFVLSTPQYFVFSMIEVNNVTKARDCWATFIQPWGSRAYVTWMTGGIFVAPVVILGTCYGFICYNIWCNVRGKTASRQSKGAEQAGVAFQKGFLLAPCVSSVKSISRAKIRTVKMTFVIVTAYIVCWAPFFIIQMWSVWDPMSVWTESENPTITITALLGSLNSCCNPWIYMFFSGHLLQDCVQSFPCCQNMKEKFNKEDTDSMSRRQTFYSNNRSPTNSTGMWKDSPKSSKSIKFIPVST

Row | Structure (SMILES) | V1a % inhibition @ 100 nM [%]
1 | Cc1cc(C(=O)N2Cc3ccc(C(=O)N4CCN(c5ccccn5)CC4)n3Cc3ccccc32)ccc1C1=CCCCC1 [Example 9, {10-[4-(1-Cyclohex-1-en-1-yl)-3-methylbenzoyl]-10,11-dihydro-5H-pyrrolo[2,1-c][1,4]benzodiazepin-3-yl}[4-(2-pyridinyl)-1-piperazinyl]methanone] | 5
2 | CC1=C(c2ccc(C(=O)N3Cc4ccc(C(=O)N(C)Cc5cccnc5)n4Cc4ccccc43)cc2C)CCC[C@H]1O.O=C(O)C(O)C(O)C(=O)O [Example 4, 10-[4-((3R)-3-Hydroxy-2-methyl-cyclohex-1-en-1-yl)-3-methyl-benzoyl]-10,11-dihydro-5H-pyrrolo[2,1-c][1,4]benzodiazepine-3-carboxylic acid methyl-pyridin-3-yl methyl-amide L-(+)-tartaric acid salt] | 61
3 | Cc1cc(C(=O)N2Cc3ccc(C(=O)NCc4ccccn4)n3Cc3ccccc32)ccc1C1=CCCCC1 [Example 5, 10-[4-(1-Cyclohex-1-en-1-yl)-3-methylbenzoyl]-N-(2-pyridinylmethyl)-10,11-dihydro-5H-pyrrolo[2,1-c][1,4]benzodiazepine-3-carboxamide] | 18
4 | Cc1cc(C(=O)N2Cc3ccc(C(=O)NCc4ccncc4)n3Cc3ccccc32)ccc1C1=CCCCC1 [Example 10, 10-[4-(1-Cyclohex-1-en-1-yl)-3-methylbenzoyl]-N-(4-pyridinylmethyl)-10,11-dihydro-5H-pyrrolo[2,1-c][1,4]benzodiazepine-3-carboxamide] | 13
5 | Cc1cc(C(=O)N2Cc3ccc(C(=O)NCc4cccnc4)n3Cc3ccccc32)ccc1C1=CCCCC1 [Example 6, 10-[4-(1-Cyclohex-1-en-1-yl)-3-methylbenzoyl]-N-(3-pyridinylmethyl)-10,11-dihydro-5H-pyrrolo[2,1-c][1 ,4]benzodiazepine-3-carboxamide] | 6
6 | Cc1cc(C(=O)N2Cc3ccc(C(=O)N(C)Cc4cccnc4)n3Cc3ccccc32)ccc1C1=CCCCC1 [Example 11, 10-[4-(1-Cyclohex-1-en-1-yl)-3-methylbenzoyl]-N-methyl-N-(3-pyridinylmethyl)-10,11-dihydro-5H-pyrrolo[2,1-c][1,4]benzodiazepine-3-carboxamide] | 54
7 | Cc1cc(C(=O)N2Cc3ccc(C(=O)N(C)CCc4ccncc4)n3Cc3ccccc32)ccc1C1=CCCCC1 [Example 13, 10-[4-(1-Cyclohex-1-en-1-yl)-3-methylbenzoyl]-N-methyl-N-[2-(4-pyridinyl)ethyl]-10,11-dihydro-5H-pyrrolo[2,1-c][1,4]benzodiazepine-3-carboxamide] | 51
8 | CC1=C(c2ccc(C(=O)N3Cc4ccc(C(=O)N(C)Cc5cccnc5)n4Cc4ccccc43)cc2C)CCC[C@H]1O [Example 3, 10-[4-((3R)-3-Hydroxy-2-methyl-cyclohex-1-en-1-yl)-3-methyl-benzoyl]-10,11-dihydro-5H-pyrrolo[2,1-c][1,4]benzodiazepine-3-carboxylic acid methyl-pyridin-3-yl methyl-amide] | 41
9 | Cc1cc(C(=O)N2Cc3ccc(C(=O)N4CCN(c5ccncc5)CC4)n3Cc3ccccc32)ccc1C1=CCCCC1 [Example 12, {10-[4-(1-Cyclohex-1-en-1-yl)-3-methylbenzoyl]-10,11-dihydro-5H-pyrrolo[2,1--c][1,4]benzodiazepin-3-yl}[4-(4-pyridinyl)-1-piperazinyl]methanone] | 73
10 | Cc1cc(C(=O)N2Cc3ccc(C(=O)NCCc4ccccn4)n3Cc3ccccc32)ccc1C1=CCCCC1 [Example 7, 10-[4-(1-Cyclohex-1-en-1-yl)-3-methylbenzoyl]-N-[2-(2-pyridinyl)ethyl]-10,11-pyrrolo[2,1-c][1,4]benzodiazepine-3-carboxamide] | 13
11 | Cc1cc(C(=O)N2Cc3ccc(C(=O)N(C)CCc4ccccn4)n3Cc3ccccc32)ccc1C1=CCCCC1 [Example 8, 10-[4-(1-Cyclohex-1-en-1-yl)-3-methylbenzoyl]-N-methyl-N-[2-(2-pyridinyl)ethyl]-10,11-dihydro-5H-pyrrolo[2,1-c][1 ,4]benzodiazepine-3-carboxamide] | 43

Same assay, conditions: [3H]Manning ligand, value in parentheses

Row | Structure (SMILES) | IC50 [nM]
12 | COc1cc(C2=CCCCC2)c(Cl)cc1C(=O)N1Cc2ccc(C(=O)N(C)Cc3cccnc3)n2Cc2ccccc21 [Example 1, 10-(5-Chloro-4-cyclohex-1-en-1-yl-2-me3thoxybenzoyl)-N-methyl-N-(pyridin-3-ylmethyl)-10,11-dihydro-5H-pyrrolo [2,1-c][1,4]benzodiazepine-3-carboxamide] | 1090
13 | COc1cc(C2=CCCCC2)c(Cl)cc1C(=O)N1Cc2ccc(C(=O)N(C)Cc3cccnc3)n2Cc2ccccc21 [Example 2, 10-(5-Chloro-4-cyclohex-1-en-1-yl-2-methoxybenzoyl)-N-methyl-N-(pyridin-3-ylmethyl)-10,11-dihydro-5H-pyrrolo[2,1-c][1,4]benzodiazepine-3-carboxamide L-(+)-tartaric acid salt hemihydrate] | 1320

— patent US20030055046A1, “Novel pyrido cyclohexenyl phenyl carboxamides tocolytic oxytocin receptor antagonists” (Wyeth, priority 2001, published 2003)
